Test results from patent US20240279283A1, “CYCLIC PEPTIDE ANTIBIOTICS” (priority 2021, published 2024).
Bridge positions count the residues as written; N and C are the ends. Square brackets hold non-standard residues; d marks the D form. Peptide text beside a SMILES is read from it. Bip = N[C@@H](Cc1ccc(-c2ccccc2)cc1)C(=O)O; Phe(4-Cl) = N[C@@H](Cc1ccc(Cl)cc1)C(=O)O; 1Nal = N[C@@H](Cc1cccc2ccccc12)C(=O)O; 2Nal = N[C@@H](Cc1ccc2ccccc2c1)C(=O)O; His(π-Me) = Cn1cncc1C[C@H](N)C(=O)O; NMeY = CN[C@@H](Cc1ccc(O)cc1)C(=O)O; NMeF = CN[C@@H](Cc1ccccc1)C(=O)O; Abu = CC[C@H](N)C(=O)O; Aib = CC(C)(N)C(=O)O

Key:
Assay type in all cases: cell-based
Conditions in all cases: LB broth, 5×10^5 CFU/ml, 37° C., 18 hours, scored by eye
E. coli 25922 = test: Minimum Inhibitory Concentration (MIC) determination, E. coli 25922; set-up: unit not given here
Description: (§1) MICs were determined by performing two-fold serial dilutions of peptides in LB broth to a final volume of 0.1 ml in round-bottom 96-well assay plates (Corning Life Sciences No 3788). Peptides were initially resuspended in 100% DMSO to 10 mM and subsequently diluted in LB medium to the appropriate concentration. Each well was inoculated with 5×10^5 CFU/ml of the screening stain and incubated at 37° C. without agitation for 18 hours. Plates were scored by eye, and the lowest compound concentration preventing visible growth was determined to be the MIC.

E. coli 25922 IMP = test: Minimum Inhibitory Concentration (MIC) determination, E. coli 25922 IMP
Description: as §1

E. coli BW25113 = test: Minimum Inhibitory Concentration (MIC) determination, E. coli BW25113; set-up: unit not given here
Description: as §1

| SMILES | MIC E. coli 25922 WUXI::MIC (E. coli 25922) | MIC E. coli 25922 IMP WUXI::MIC (E. coli 25922 IMP) | MIC E. coli BW25113 WUXI::MIC (E. coli BW25113) |
| --- | --- | --- | --- |
| CC[C@@H]1NC(=O)[C@H](Cc2ccccc2)NC(=O)CSC[C@@H](C(=O)NCC(N)=O)NC(=O)[C@H](Cc2cncn2C)NC(=O)[C@H](CCCNC(=N)N)NC(=O)[C@H](Cc2c[nH]cn2)NC(=O)[C@H](Cc2ccc(O)cc2)N(C)C(=O)[C@H](CCCNC(=N)N)NC(=O)[C@H](CO)NC(=O)CNC(=O)[C@H](Cc2c[nH]cn2)NC(=O)[C@H](Cc2ccc(-c3ccccc3)cc2)NC1=O [Compound 24] ({CH2CO}-F[Abu][Bip]HGSR[NMeY]HR[His(π-Me)]CG-NH2; thioether N-12) | 13 | 0.016 | – |
| CC[C@@H]1NC(=O)[C@H](Cc2ccccc2)NC(=O)CSC[C@@H](C(=O)NCC(N)=O)NC(=O)[C@H](Cc2cncn2C)NC(=O)[C@H](CCCNC(=N)N)NC(=O)[C@H](Cc2c[nH]cn2)NC(=O)[C@H](Cc2ccc(O)cc2)N(C)C(=O)[C@H](CCCNC(=N)N)NC(=O)[C@H](CO)NC(=O)CNC(=O)[C@H](Cc2c[nH]cn2)NC(=O)[C@H](Cc2ccc3ccccc3c2)NC1=O [Compound 25] ({CH2CO}-F[Abu][2Nal]HGSR[NMeY]HR[His(π-Me)]CG-NH2; thioether N-12) | 25 | 0.031 | – |
| CC[C@@H]1NC(=O)[C@H](Cc2ccccc2)N(C)C(=O)CSC[C@@H](C(=O)NCC(N)=O)NC(=O)[C@H](Cc2cncn2C)NC(=O)[C@H](CCN)NC(=O)[C@H](Cc2c[nH]cn2)NC(=O)[C@H](Cc2ccc(O)cc2)N(C)C(=O)[C@H](CCCNC(=N)N)NC(=O)[C@H](CO)NC(=O)CNC(=O)[C@H](Cc2c[nH]cn2)NC(=O)[C@H](Cc2cccc3ccccc23)NC1=O (racemic) [Compound 49] | 50 | – | – |
| CCC1NC(=O)C(Cc2c[nH]cn2)NC(=O)C(Cc2ccc(O)cc2)N(C)C(=O)C(CCCNC(=N)N)NC(=O)C(CO)NC(=O)CNC(=O)C(Cc2c[nH]cn2)NC(=O)C(Cc2cccc3ccccc23)NC(=O)C(CC)NC(=O)C(Cc2ccccc2)N(C)C(=O)CSCC(C(=O)NCC(N)=O)NC(=O)C(Cc2cncn2C)NC1=O (racemic) [Compound 44] | >100 | – | – |
| CC[C@@H]1NC(=O)[C@H](Cc2ccccc2)NC(=O)CSC[C@@H](C(=O)NCC(N)=O)NC(=O)[C@H](Cc2cncn2C)NC(=O)[C@H](CCCNC(=N)N)NC(=O)[C@H](Cc2c[nH]cn2)NC(=O)[C@H](Cc2ccc(O)cc2)N(C)C(=O)[C@H](C)NC(=O)[C@H](CO)NC(=O)CNC(=O)[C@H](Cc2c[nH]cn2)NC(=O)[C@H](Cc2cccc3ccccc23)NC1=O [Compound 36] ({CH2CO}-F[Abu][1Nal]HGSA[NMeY]HR[His(π-Me)]CG-NH2; thioether N-12) | 100 | 100 | – |
| CC[C@@H]1NC(=O)[C@H](Cc2ccccc2)NC(=O)CSC[C@@H](C(=O)NCC(N)=O)NC(=O)[C@H](Cc2cncn2C)NC(=O)[C@H](CC)NC(=O)[C@H](Cc2c[nH]cn2)NC(=O)[C@H](Cc2ccccc2)N(C)C(=O)[C@H](CCCNC(=N)N)NC(=O)[C@H](CO)NC(=O)CNC(=O)[C@H](Cc2c[nH]cn2)NC(=O)[C@H](Cc2cccc3ccccc23)NC1=O [Compound 5, (3R,6S,9S,12S,15S,18S,21S,27S,30S, 33S,36S)-N-(2-amino-2-oxo-ethyl)-15,36-dibenzyl-9,33-diethyl-18-(3-guanidinopropyl)-21-(hydroxymethyl)-12,27-bis(1H-imidazol-4-ylmethyl)-16-methyl-6-[(3-methylimidazol-4-yl)methyl]-30-(1-naphthylmethyl)-5,8,11,14,17,20,23,26,29,32,35,38-dodecaoxo-1-thia-4,7,10,13,16,19,22,25,28,31,34,37-dodecazacyclononatriacontane-3-carboxamide] ({CH2CO}-F[Abu][1Nal]HGSR[NMeF]H[Abu][His(π-Me)]CG-NH2; thioether N-12) | – | 0.016 | >32 |
| CC[C@@H]1NC(=O)[C@H](Cc2ccccc2)NC(=O)CSC[C@@H](C(=O)NCC(N)=O)NC(=O)[C@H](Cc2cncn2C)NC(=O)[C@H](CCCNC(=N)N)NC(=O)[C@H](Cc2cnc[nH]2)NC(=O)[C@H](Cc2ccc(O)cc2)N(C)C(=O)[C@H](CCCNC(=N)N)NC(=O)[C@H](CO)NC(=O)CN(C)C(=O)[C@H](Cc2cnc[nH]2)NC(=O)[C@H](Cc2c[nH]c3ccccc23)NC1=O (racemic) [Compound 13] | – | 0.00 | 4 |
| CC[C@@H]1NC(=O)[C@H](Cc2ccccc2)NC(=O)CSC[C@@H](C(=O)NCC(N)=O)NC(=O)[C@H](Cc2cncn2C)NC(=O)[C@H](CN)NC(=O)[C@H](Cc2c[nH]cn2)NC(=O)[C@H](Cc2ccc(O)cc2)N(C)C(=O)[C@H](CCCNC(=N)N)NC(=O)[C@H](CO)NC(=O)CNC(=O)[C@H](Cc2c[nH]cn2)NC(=O)[C@H](Cc2cccc3ccccc23)NC1=O (racemic) [Compound 46] | 100 | – | – |
| CC[C@@H]1NC(=O)[C@H](Cc2ccccc2)N(C)C(=O)CSC[C@@H](C(=O)NCC(N)=O)NC(=O)[C@H](Cc2cncn2C)NC(=O)[C@H](CCC(N)=O)NC(=O)[C@H](Cc2c[nH]cn2)NC(=O)[C@H](Cc2ccc(O)cc2)N(C)C(=O)[C@H](CCCNC(=N)N)NC(=O)[C@H](CO)NC(=O)CNC(=O)[C@H](Cc2c[nH]cn2)NC(=O)[C@H](Cc2cccc3ccccc23)NC1=O (racemic) [Compound 45] | >100 | – | – |
| CC[C@@H]1NC(=O)[C@H](Cc2ccccc2)NC(=O)CSC[C@@H](C(=O)NCC(N)=O)NC(=O)[C@H](Cc2cncn2C)NC(=O)[C@H](CCC(N)=O)NC(=O)[C@H](Cc2c[nH]cn2)NC(=O)[C@H](Cc2ccc(O)cc2)N(C)C(=O)[C@H](CCCNC(=N)N)NC(=O)[C@H](CO)NC(=O)CNC(=O)[C@H](Cc2c[nH]cn2)NC(=O)[C@H](Cc2cccc3ccccc23)NC1=O (racemic) [Compound 42] | 100 | – | – |
| CC[C@@H]1NC(=O)[C@H](Cc2ccccc2)NC(=O)CSC[C@@H](C(=O)NCC(N)=O)NC(=O)[C@H](Cc2cncn2C)NC(=O)[C@H](CCCNC(=N)N)NC(=O)[C@H](Cc2cnc[nH]2)NC(=O)[C@H](Cc2ccccc2)N(C)C(=O)[C@H](CCCNC(=N)N)NC(=O)[C@H](CO)NC(=O)CN(C)C(=O)[C@H](Cc2cnc[nH]2)NC(=O)[C@H](Cc2c[nH]c3ccccc23)NC1=O (racemic) [Compound 11, rac-(3R,6S,9S,12S,15S,18S,21S,27S,30S, 33S,36S)-N-(2-amino-2-oxo-ethyl)-15,36-dibenzyl-33-ethyl-9,18-bis(3-guanidinopropyl)-21-(hydroxymethyl)-12,27-bis(1H-imidazol-5-ylmethyl)-30-(1H-indol-3-ylmethyl)-16,25-dimethyl-6-[(3-methylimidazol-4-yl)methyl]-5,8,11,14,17,20,23,26,29,32,35,38-dodecaoxo-1-thia-4,7,10,13,16,19,22,25,28,31,34,37-dodecazacyclononatriacontane-3-carboxamide] | – | 1.9074E−06 | 8 |
| CC[C@@H]1NC(=O)[C@H](Cc2ccccc2)NC(=O)CSC[C@@H](C(=O)NCC(N)=O)NC(=O)[C@H](Cc2cncn2C)NC(=O)[C@H](CC)NC(=O)[C@H](Cc2c[nH]cn2)NC(=O)[C@H](Cc2ccc(O)cc2)N(C)C(=O)[C@H](CCCNC(=N)N)NC(=O)[C@H](CO)NC(=O)CNC(=O)[C@H](Cc2c[nH]cn2)NC(=O)[C@H](Cc2cccc3ccccc23)NC1=O (stereo in doubt) [Compound 41] | >100 | – | – |
| CC[C@H](C)[C@@H]1NC(=O)[C@H]([C@@H](C)O)NC(=O)[C@H](Cc2cncn2C)NC(=O)[C@H](Cc2ccccc2)NC(=O)CSC[C@@H](C(=O)NCC(N)=O)NC(=O)[C@H](Cc2ccccc2)NC(=O)[C@H](Cc2c[nH]c3ccccc23)NC(=O)[C@H](Cc2ccc(O)cc2)NC(=O)[C@H](Cc2cncn2C)NC(=O)[C@H](Cc2ccccc2)NC(=O)C(C)(C)NC(=O)[C@H](CCCNC(=N)N)NC(=O)[C@H](CCCCN)NC(=O)[C@H](CCCNC(=N)N)NC1=O [Compound 54, trifluoroacetic acid] ({CH2CO}-F[His(π-Me)]TIRKR[Aib]F[His(π-Me)]YWFCG-NH2; thioether N-14) | – | 0.5 | 8 |
| CC[C@@H]1NC(=O)[C@H](Cc2ccccc2)N(C)C(=O)CSC[C@@H](C(=O)NCC(N)=O)NC(=O)[C@H](Cc2cncn2C)NC(=O)[C@H](CN)NC(=O)[C@H](Cc2c[nH]cn2)NC(=O)[C@H](Cc2ccc(O)cc2)N(C)C(=O)[C@H](CCCNC(=N)N)NC(=O)[C@H](CO)NC(=O)CNC(=O)[C@H](Cc2c[nH]cn2)NC(=O)[C@H](Cc2cccc3ccccc23)NC1=O (racemic) [Compound 48] | >100 | – | – |
| CC[C@@H]1NC(=O)[C@H](Cc2ccccc2)NC(=O)CSC[C@@H](C(=O)NCC(N)=O)NC(=O)[C@H](Cc2cncn2C)NC(=O)[C@H](CCCNC(=N)N)NC(=O)[C@H](Cc2cnc[nH]2)NC(=O)[C@H](Cc2ccc(O)cc2)N(C)C(=O)[C@H](CCCNC(=N)N)NC(=O)[C@H](CO)NC(=O)CNC(=O)[C@H](Cc2cnc[nH]2)NC(=O)[C@H](Cc2c[nH]c3ccccc23)NC1=O (racemic) [Compound 12] | – | 3.8137E−06 | 1 |
| CC[C@H](C)[C@@H]1NC(=O)[C@H]([C@@H](C)O)NC(=O)[C@H](Cc2cncn2C)NC(=O)[C@H](Cc2ccccc2)NC(=O)CSC[C@@H](C(=O)NCC(N)=O)NC(=O)[C@H](Cc2ccc(O)cc2)NC(=O)[C@H](Cc2ccc(Cl)cc2)NC(=O)[C@H](Cc2ccc(O)cc2)NC(=O)[C@H](CCCNC(=N)N)NC(=O)[C@H](Cc2ccccc2)NC(=O)C(C)(C)NC(=O)[C@H](CCCNC(=N)N)NC(=O)[C@H](CCCCN)NC(=O)[C@H](CCCNC(=N)N)NC1=O [Compound 58] ({CH2CO}-F[His(π-Me)]TIRKR[Aib]FRY[Phe(4-Cl)]YCG-NH2; thioether N-14) | – | 0.25 | 2 |
